Data reported in US20250325529A1, “INHIBITORS OF FATTY ACID BINDING PROTEINS (FABPs), METHODS OF USE AND METHODS OF MAKING” (Celloram, inc., priority 2024, published 2025).

Columns and labels:
[1] = target: FABP4 (Homo sapiens (Human), UniProt P15090); test: Fluorescence (ANS) competition binding assay, FABP4; details: ANS displacement
Outline: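 His-tagged FABPs were expressed in E. coli. Kd for ANS was first determined by titrating 2 μM protein with ANS and following fluorescence increase. Compounds then displaced ANS from 1:1 protein:ANS complexes, and Kd was derived from the competition EC50 and the ANS Kd.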

[2] = tested on: Salmonella typhimurium tester strain TA1535; test: Ames test (Bacterial Reverse Mutation Test), TA1535; assay type: cell-based
Experimental: PD152 (compound 2) was tested for genotoxic and cytotoxic side effects by Ames test. The Ames test is a Bacterial Reverse Mutation Test of mutagenicity that utilizes Salmonella typhimurium tester strains TA98, TA100, TA1535, TA1537 and Escherichia coli tester strain WP2 uvrA (pKM101), both in the presence and absence of S9.
The compound PD152 was tested at 10 concentrations (0.032-1000 μg/plate) in the presence of, or absence of, the hepatic enzyme S9.
The aniline FABP4/5 inhibitor compound, 2-((2-((2,4-dichloro-5-isopropoxyphenyl)amino)-2-oxoethyl)thio)-2-methylpropanoic acid (compound “B104” as disclosed in WO2023043803A1) also was tested for genotoxic and cytotoxic side effects by Ames test. B104 was tested using the Salmonella typhimurium tester stains TA98, TA100, TA1535, and TA1537, both in the presence and absence of the hepatic enzyme S9, at 5 concentrations (1.5-64 μg/plate).

[3] = tested on: normal human mammary epithelial cells (HMEC); test: Proliferation assay (Incucyte confluency), HMEC; assay type: cell-based
Experimental: COS-7, MDA-MB-231, and HepG2, were cultured in Dulbecco's modified Eagle's medium (DMEM) supplemented with 10% fetal bovine serum (Invitrogen Life Sciences, Carlsbad, CA). BT-549, OVCAR5 and OVCAR8 cells were cultured in L-Glutamine containing RPMI medium supplemented with 10% fetal calf serum (Invitrogen Life Sciences, Carlsbad, CA). The primary Human Mammary Epithelial Cells (HMEC) were cultured in mammary epithelial cell complete medium (basal medium plus rH-Insulin (5 μg/mL); L-Glutamine (6 mM); Epinephrine (1 μM); Apo-Transferrin (5 μg/mL); rH-TGF-α (0.5 ng/mL); ExtractP (0.4%); Hydrocortisone Hemisuccinate (100 ng/mL)).
2000 cells were plated in each well of 96-well plate. The next day cells were treated with compounds and incubated in Incucyte for 4 days. Images taken every 4 hours for the duration of the time were analyzed to calculate percentage of confluency in response to the treatments. Growth inhibition was calculated as 1—(percentage of viable cells out of untreated cells).

[4] = TA1535, absence of S9, 0.0312 μg/plate
[5] = TA1535, absence of S9, 0.1 μg/plate
[6] = TA1535, absence of S9, 0.316 μg/plate
[7] = TA1535, absence of S9, 1 μg/plate
[8] = TA1535, absence of S9, 3.16 μg/plate
[9] = TA1535, absence of S9, 10 μg/plate
[10] = TA1535, absence of S9, 31.6 μg/plate
[11] = TA1535, absence of S9, 100 μg/plate
[12] = TA1535, absence of S9, 316 μg/plate
[13] = TA1535, absence of S9, 1000 μg/plate
[14] = TA1535, presence of S9, 0.0312 μg/plate
[15] = TA1535, presence of S9, 0.1 μg/plate
[16] = TA1535, presence of S9, 0.316 μg/plate
[17] = TA1535, presence of S9, 1 μg/plate
[18] = TA1535, presence of S9, 3.16 μg/plate
[19] = TA1535, presence of S9, 10 μg/plate
[20] = TA1535, presence of S9, 31.6 μg/plate
[21] = TA1535, presence of S9, 100 μg/plate
[22] = TA1535, presence of S9, 316 μg/plate
[23] = TA1535, presence of S9, 1000 μg/plate

Chain of FABP4 (P15090 whole entry, species assumed): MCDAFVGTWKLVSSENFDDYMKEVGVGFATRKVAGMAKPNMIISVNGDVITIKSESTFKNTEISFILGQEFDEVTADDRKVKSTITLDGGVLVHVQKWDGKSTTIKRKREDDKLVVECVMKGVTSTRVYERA

Question: Which results are given for `CC(C)Oc1nc(NC(=O)CSCC(=O)O)c(Cl)cc1Cl` [PD152, 2-((2-((3,5-dichloro-6-isopropoxypyridin-2-yl)amino)-2-oxoethyl)thio)acetic acid]?
Answer: Kd [1]: 0.018 µM; Fold increase [2, 4]: 1; Mean number of revertants [2, 4]: 3; Fold increase [2, 5]: 1; Mean number of revertants [2, 5]: 3; Fold increase [2, 6]: 1; Mean number of revertants [2, 6]: 3; Fold increase [2, 7]: 1; Mean number of revertants [2, 7]: 3; Fold increase [2, 8]: 1; Mean number of revertants [2, 8]: 3; Fold increase [2, 9]: 1; Mean number of revertants [2, 9]: 4; Fold increase [2, 10]: 1; Mean number of revertants [2, 10]: 4; Fold increase [2, 11]: 1; Mean number of revertants [2, 11]: 4; Fold increase [2, 12]: 1; Mean number of revertants [2, 12]: 3; Fold increase [2, 13]: 1; Mean number of revertants [2, 13]: 3; Fold increase [2, 14]: 1; Mean number of revertants [2, 14]: 3; Fold increase [2, 15]: 1; Mean number of revertants [2, 15]: 4; Fold increase [2, 16]: 1; Mean number of revertants [2, 16]: 3; Fold increase [2, 17]: 1; Mean number of revertants [2, 17]: 4; Fold increase [2, 18]: 1; Mean number of revertants [2, 18]: 4; Fold increase [2, 19]: 1; Mean number of revertants [2, 19]: 4; Fold increase [2, 20]: 1; Mean number of revertants [2, 20]: 4; Fold increase [2, 21]: 1; Mean number of revertants [2, 21]: 4; Fold increase [2, 22]: 1; Mean number of revertants [2, 22]: 4; Fold increase [2, 23]: 1; Mean number of revertants [2, 23]: 4; Concentrations at which proliferation of HMEC cells was inhibited ([3]; HMEC cells, 4 days): > 125 µM; IC50 ([3]; Homo sapiens, 96 h, HMEC cells, 4 days, read-out: IC50, inhibition of proliferation): 319 µM; Fold lower efficacy in HMEC than in BT-549 cells ([3]; IC50 HMEC vs BT-549): 305 fold; Fold lower efficacy in HMEC than in MB-231 cells ([3]; IC50 HMEC vs MB-231): 532 fold
